# According to patent publication US8440708B2, “Triazole-substituted arylamides as P2X3 and P2X2/3 antagonists” (Roche Palo Alto LLC, priority 2007, dated 2013):
# What was measured:
# rat P2X3 receptor = target: T1, rat P2X3 receptor (Rattus norvegicus, UniProt P49654); experiment: P2X3/P2X2/3 FLIPR (Fluorometric Imaging Plate Reader) Assay, P2X3; type: cell-based; settings: CHO-K1 cells transfected with rat P2X3; agonist α,β-meATP 1 μM; Table 1; read-out: P2X3 pKi (converted)
# T1 construct: expressed in transfected cells; host or cells: CHO-K1
# T1 sequence (P49654 1-397): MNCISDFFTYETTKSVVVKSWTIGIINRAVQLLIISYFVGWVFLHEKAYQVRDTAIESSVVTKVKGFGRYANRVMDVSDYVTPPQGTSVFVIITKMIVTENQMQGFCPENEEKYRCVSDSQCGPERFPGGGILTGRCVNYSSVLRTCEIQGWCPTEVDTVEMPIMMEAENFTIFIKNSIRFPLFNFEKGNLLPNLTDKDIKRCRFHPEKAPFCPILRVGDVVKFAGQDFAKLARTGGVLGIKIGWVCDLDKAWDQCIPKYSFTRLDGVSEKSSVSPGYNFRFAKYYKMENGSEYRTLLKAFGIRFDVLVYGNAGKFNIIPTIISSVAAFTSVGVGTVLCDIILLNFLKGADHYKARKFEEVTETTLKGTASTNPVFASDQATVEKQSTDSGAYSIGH
# Outline: (§1)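 CHO-K1 cells expressing rat P2X3 or human P2X2/3 were loaded with Fluo-3 AM (2 μM, 1 h, 37 °C) and preincubated with compound for 20 min at room temperature. Calcium influx was evoked by α,β-meATP (1 μM for P2X3, 5 μM for P2X2/3) and peak fluorescence was fitted by nonlinear regression to inhibition curves.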
# human P2X2/3 receptor = target: T2, human P2X2/3 receptor (Homo sapiens, UniProt P56373+Q9UBL9); experiment: P2X3/P2X2/3 FLIPR (Fluorometric Imaging Plate Reader) Assay, P2X2/3; type: cell-based; settings: CHO-K1 cells transfected with human P2X2/3; agonist α,β-meATP 5 μM; Table 1; read-out: P2X2/3 pKi (converted)
# T2 construct: expressed in transfected cells; host or cells: CHO-K1
# T2 sequence (Q9UBL9 1-471): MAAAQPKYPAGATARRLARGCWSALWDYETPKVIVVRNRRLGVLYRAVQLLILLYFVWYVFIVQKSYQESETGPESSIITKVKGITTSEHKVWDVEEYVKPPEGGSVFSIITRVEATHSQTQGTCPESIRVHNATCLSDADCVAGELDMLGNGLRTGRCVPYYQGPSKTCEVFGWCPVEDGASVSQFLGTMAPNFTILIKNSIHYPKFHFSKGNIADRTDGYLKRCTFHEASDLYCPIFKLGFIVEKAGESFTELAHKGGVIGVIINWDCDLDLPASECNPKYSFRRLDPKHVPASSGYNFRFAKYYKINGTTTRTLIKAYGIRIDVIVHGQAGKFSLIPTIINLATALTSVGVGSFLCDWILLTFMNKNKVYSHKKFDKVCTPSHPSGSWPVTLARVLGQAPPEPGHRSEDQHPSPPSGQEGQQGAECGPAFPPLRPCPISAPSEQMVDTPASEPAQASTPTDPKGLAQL
# T2 sequence (P56373 1-397): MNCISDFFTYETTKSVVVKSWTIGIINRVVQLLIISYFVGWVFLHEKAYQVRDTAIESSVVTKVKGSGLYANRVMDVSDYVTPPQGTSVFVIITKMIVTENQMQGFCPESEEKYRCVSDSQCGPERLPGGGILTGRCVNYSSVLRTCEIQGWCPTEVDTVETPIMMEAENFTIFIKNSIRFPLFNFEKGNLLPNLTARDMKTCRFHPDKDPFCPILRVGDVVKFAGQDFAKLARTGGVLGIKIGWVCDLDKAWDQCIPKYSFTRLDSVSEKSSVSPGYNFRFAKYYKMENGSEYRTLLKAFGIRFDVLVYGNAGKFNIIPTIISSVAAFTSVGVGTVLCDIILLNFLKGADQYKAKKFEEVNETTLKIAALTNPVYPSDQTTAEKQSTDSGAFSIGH
# Outline: as §1
SMILES,Ki (rat P2X3 receptor) [nM],Ki (human P2X2/3 receptor) [nM]
"Cc1ccc(-c2cc(C(=O)N[C@@H](C)CO)cc(-c3ncnn3C(C)C)c2)cc1 [Compound 54, 5-(2-Isopropyl-2H-[1,2,4]triazol-3-yl)-4′-methyl-biphenyl-3-carboxylic acid (2-hydroxy-1-methyl-ethyl)-amide]",21.4,2450
"Cc1ccc(-c2cc(C(=O)N[C@@H](C)CO)cc(-n3ncnc3C(C)C)c2)nc1 [Compound 55, N-(2-Hydroxy-1-methyl-ethyl)-3-(5-isopropyl-[1,2,4]triazol-1-yl)-5-(5-methyl-pyridin-2-yl)-benzamide]",5.37,457
"COC(C)c1ncnn1-c1cc(C(=O)N[C@@H](C)CO)cc(-c2ccc(C)cn2)c1 (stereo partly drawn) [Compound 57, N-(2-Hydroxy-1-methyl-ethyl)-3-[5-(1-methoxy-ethyl)-[1,2,4]triazol-1-yl]-5-(5-methyl-pyridin-2-yl)-benzamide]",74.1,7940
"Cc1ccc(-c2cc(C(=O)N[C@@H](C)CO)cc(-n3ncnc3C3CC3)c2)nc1 [Compound 59, 3-(5-Cyclopropyl-[1,2,4]triazol-1-yl)-N-(2-hydroxy-1-methyl-ethyl)-5-(5-methyl-pyridin-2-yl)-benzamide]",77.6,6170
"Cc1ccc(-c2cc(C(=O)NC3CC3)cc(-n3ncnc3C(F)(F)F)c2)cc1 [Compound 64, 4′-Methyl-5-(5-trifluoromethyl-[1,2,4]triazol-1-yl)-biphenyl-3-carboxylic acid cyclopropylamide]",4.57,309
"Cc1ccc(-c2cc(C(=O)N[C@@H](C)CO)cc(-n3ncnc3C(F)(F)F)c2)cc1 [Compound 65, 4′-Methyl-5-(5-trifluoromethyl-[1,2,4]triazol-1-yl)-biphenyl-3-carboxylic acid ((S)-2-hydroxy-1-methyl-ethyl)-amide]",6.76,2000
"Cc1ccc(-c2cc(C(=O)NCc3cnc(C)cn3)cc(-n3ncnc3C(F)(F)F)c2)cc1 [Compound 67, 4′-Methyl-5-(5-trifluoromethyl-[1,2,4]triazol-1-yl)-biphenyl-3-carboxylic acid (5-methyl-pyrazin-2-ylmethyl)-amide]",6.31,49
"Cc1ccc(-c2cc(C(=O)NCc3cnc(C)cn3)cc(-n3ncnc3C(C)(F)F)c2)nc1 [Compound 69, 3-[5-(1,1-Difluoro-ethyl)-[1,2,4]triazol-1-yl]-N-(5-methyl-pyrazin-2-ylmethyl)-5-(5-methyl-pyridin-2-yl)-benzamide]",1.86,26.9
"Cc1ccc(-c2cc(C(=O)N[C@@H](C)CO)cc(-n3ncnc3C(C)(F)F)c2)nc1 [Compound 71, 3-[5-(1,1-Difluoro-ethyl)-[1,2,4]triazol-1-yl]-N-((S)-2-hydroxy-1-methyl-ethyl)-5-(5-methyl-pyridin-2-yl)-benzamide]",2.82,2290
"Cc1ccc(-c2cc(C(=O)NC3CC3)cc(-n3ncnc3C(C)(F)F)c2)nc1 [Compound 72, N-Cyclopropyl-3-[5-(1,1-difluoro-ethyl)-[1,2,4]triazol-1-yl]-5-(5-methyl-pyridin-2-yl)-benzamide]",9.12,2510
"C[C@@H](CO)NC(=O)c1cc(-c2ccc(Cl)cn2)cc(-n2ncnc2C(C)(F)F)c1 [Compound 73, 3-(5-Chloro-pyridin-2-yl)-5-[5-(1,1-difluoro-ethyl)-[1,2,4]triazol-1-yl]-N-((S)-2-hydroxy-1-methyl-ethyl)-benzamide]",8.91,2190
"Cc1cnc(CNC(=O)c2cc(-c3ccc(Cl)cn3)cc(-n3ncnc3C(F)F)c2)cn1 [Compound 77, 3-(5-Chloro-pyridin-2-yl)-5-(5-difluoromethyl-[1,2,4]triazol-1-yl)-N-(5-methyl-pyrazin-2-ylmethyl)-benzamide]",9.77,724

# Next, values leading:
Ki (rat P2X3 receptor) [nM],Ki (human P2X2/3 receptor) [nM],SMILES
14.1,891,"CC(C)Oc1ncnn1-c1cc(C(=O)NC(C)c2cnccn2)cc(-c2ccc(Cl)cc2)c1 (stereo not drawn) [Compound 52, 4′-Chloro-5-(5-isopropoxy-[1,2,4]triazol-1-yl)-biphenyl-3-carboxylic acid (1-pyrazin-2-yl-ethyl)-amide]"
12.9,309,"Cc1ccc(-c2cc(C(=O)NC(C)c3cnccn3)cc(-c3ncnn3C(C)C)c2)cc1 (stereo not drawn) [Compound 53, 5-(2-Isopropyl-2H-[1,2,4]triazol-3-yl)-4′-methyl-biphenyl-3-carboxylic acid (1-pyrazin-2-yl-ethyl)-amide]"
4.57,42.7,"Cc1ccc(-c2cc(C(=O)NC(C)c3cnccn3)cc(-n3ncnc3C(C)C)c2)nc1 (stereo not drawn) [Compound 56, 3-(5-Isopropyl-[1,2,4]triazol-1-yl)-5-(5-methyl-pyridin-2-yl)-N-(1-pyrazin-2-yl-ethyl)-benzamide]"
17,132,"COC(C)c1ncnn1-c1cc(C(=O)NC(C)c2cnccn2)cc(-c2ccc(C)cn2)c1 (stereo not drawn) [Compound 58, 3-[5-(1-Methoxy-ethyl)-[1,2,4]triazol-1-yl]-5-(5-methyl-pyridin-2-yl)-N-(1-pyrazin-2-yl-ethyl)-benzamide]"
19.1,389,"Cc1ccc(-c2cc(C(=O)NC(C)c3cnccn3)cc(-n3ncnc3C3CC3)c2)nc1 (stereo not drawn) [Compound 60, 3-(5-Cyclopropyl-[1,2,4]triazol-1-yl)-5-(5-methyl-pyridin-2-yl)-N-(1-pyrazin-2-yl-ethyl)-benzamide]"
5.25,51.3,"Cc1ccc(-c2cc(C(=O)NC(C)c3cnccn3)cc(-n3ncnc3C(C)N(C)C)c2)cc1 (stereo not drawn) [Compound 61, 5-[5-(1-Dimethylamino-ethyl)-[1,2,4]triazol-1-yl]-4′-methyl-biphenyl-3-carboxylic acid (1-pyrazin-2-yl-ethyl)-amide]"
5.25,43.7,"Cc1ccc(-c2cc(C(=O)NCc3cnc(C)cn3)cc(-n3ncnc3C(C)N(C)C)c2)cc1 (stereo not drawn) [Compound 62, 5-[5-(1-Dimethylamino-ethyl)-[1,2,4]triazol-1-yl]-4′-methyl-biphenyl-3-carboxylic acid (5-methyl-pyrazin-2-ylmethyl)-amide]"
339,10000,"CCCc1ncnn1-c1cc(C(=O)NC(C)CN(C)C)cc(-c2ccc(C)cc2)c1 (stereo not drawn) [Compound 63, 4′-Methyl-5-(5-propyl-[1,2,4]triazol-1-yl)-biphenyl-3-carboxylic acid (2-dimethylamino-1-methyl-ethyl)-amide]"
3.72,40.7,"Cc1ccc(-c2cc(C(=O)NC(C)c3cnccn3)cc(-n3ncnc3C(F)(F)F)c2)cc1 (stereo not drawn) [Compound 66, 4′-Methyl-5-(5-trifluoromethyl-[1,2,4]triazol-1-yl)-biphenyl-3-carboxylic acid (1-pyrazin-2-yl-ethyl)-amide]"
1.91,42.7,"Cc1ccc(-c2cc(C(=O)NC(C)c3cnccn3)cc(-n3ncnc3C(C)(F)F)c2)nc1 (stereo not drawn) [Compound 70, 3-[5-(1,1-Difluoro-ethyl)-[1,2,4]triazol-1-yl]-5-(5-methyl-pyridin-2-yl)-N-(1-pyrazin-2-yl-ethyl)-benzamide]"
4.17,60.3,"CC(C)Cc1ncnn1-c1cc(C(=O)NC(C)c2cnccn2)cc(-c2ccc(Cl)cn2)c1 (stereo not drawn) [Compound 74, 3-(5-Chloro-pyridin-2-yl)-5-(5-isobutyl-[1,2,4]triazol-1-yl)-N-(1-pyrazin-2-yl-ethyl)-benzamide]"
10.2,741,"CC(NC(=O)c1cc(-c2ccc(Cl)cn2)cc(-n2ncnc2C(F)F)c1)c1cnccn1 (stereo not drawn) [Compound 76, 3-(5-Chloro-pyridin-2-yl)-5-(5-difluoromethyl-[1,2,4]triazol-1-yl)-N-(1-pyrazin-2-yl-ethyl)-benzamide]"
